Results: the NIST ThermoML archive (doi:10.1021/acs.jced.8b00692)

Experiment: xn = mol fraction of the nth substance listed
Settings: 102 kPa, Liquid; for viscosity: Concentric cylinders viscometry; for speed of sound: Frequency=3 MHz, Single path-length method; for mass density: Vibrating tube method

CCCC1CCCCC1 [1-cyclohexylpropane] + CCCCCCCCCCCCCCCC
Settings	mass density [kg/m3]	speed of sound [m/s]	viscosity [mPa·s]
293.15 K, x1 = 0.2001	775.57	1349.9	2.9
293.15 K, x1 = 0.4008	778.35	1341.6	2.35
293.15 K, x1 = 0.5001	779.98	1336.9	2.11
293.15 K, x1 = 0.6009	781.97	1331.7	1.85
293.15 K, x1 = 0.8301	787.65	1318.8	1.34
293.15 K, x1 = 1	793.54	1307.8	0.996
303.15 K, x1 = 0.2001	768.58	1312.1	2.34
303.15 K, x1 = 0.4008	771.27	1303.8	1.94
303.15 K, x1 = 0.5001	772.84	1298.4	1.74
303.15 K, x1 = 0.6009	774.74	1293.3	1.55
303.15 K, x1 = 0.8301	780.16	1279.2	1.14
303.15 K, x1 = 1	785.73	1266.2	0.86
313.15 K, x1 = 0.2001	761.59	1275.2	1.93
313.15 K, x1 = 0.4008	764.18	1266.6	1.61
313.15 K, x1 = 0.5001	765.69	1260.8	1.46
313.15 K, x1 = 0.6009	767.5	1255.6	1.31
313.15 K, x1 = 0.8301	772.64	1240.3	0.975
313.15 K, x1 = 1	777.9	1225.6	0.75
323.15 K, x1 = 0.2001	754.61	1239	1.61
323.15 K, x1 = 0.4008	757.08	1230	1.37
323.15 K, x1 = 0.5001	758.53	1224	1.25
323.15 K, x1 = 0.6009	760.24	1218.5	1.13
323.15 K, x1 = 0.8301	765.09	1202	0.858
323.15 K, x1 = 1	770.04	1185.9	0.663
333.15 K, x1 = 0.2001	747.61	1203.8	1.37
333.15 K, x1 = 0.4008	749.96	1194.3	1.18
333.15 K, x1 = 0.5001	751.33	1188	1.07
333.15 K, x1 = 0.6009	752.95	1182.1	0.97
333.15 K, x1 = 0.8301	757.51	1164.5	0.747
333.15 K, x1 = 1	762.12	1147.3	0.584
343.15 K, x1 = 0.2001	740.6	–	1.19
343.15 K, x1 = 0.4008	742.9	–	1.03
343.15 K, x1 = 0.5001	744.1	–	0.946
343.15 K, x1 = 0.6009	745.6	–	0.863
343.15 K, x1 = 0.8301	749.8	–	0.673
343.15 K, x1 = 1	754.2	–	0.544
353.15 K, x1 = 0.2001	733.6	–	1.02
353.15 K, x1 = 0.4008	735.7	–	0.905
353.15 K, x1 = 0.5001	736.9	–	0.834
353.15 K, x1 = 0.6009	738.3	–	0.764
353.15 K, x1 = 0.8301	742.2	–	0.594
353.15 K, x1 = 1	746.1	–	0.477
363.15 K, x1 = 0.2001	726.5	–	0.918
363.15 K, x1 = 0.4008	728.5	–	0.805
363.15 K, x1 = 0.5001	729.5	–	0.746
363.15 K, x1 = 0.6009	730.8	–	0.685
363.15 K, x1 = 0.8301	734.6	–	0.503
363.15 K, x1 = 1	738	–	0.452

CCCCCCCCCC1CCCCC1 [nonylcyclohexane] + CCCCCCCCCCCCCCCC
Settings	mass density [kg/m3]	speed of sound [m/s]	viscosity [mPa·s]
293.15 K, x1 = 0.2005	781.15	1363.9	3.58
293.15 K, x1 = 0.4001	789.28	1371.3	3.72
293.15 K, x1 = 0.5002	793.52	1375.2	3.79
293.15 K, x1 = 0.5998	797.86	1379.1	3.89
293.15 K, x1 = 0.8002	806.91	1387.3	4.07
293.15 K, x1 = 1	816.41	1397.2	4.34
303.15 K, x1 = 0.2005	774.24	1326.7	2.84
303.15 K, x1 = 0.4001	782.39	1334.2	2.95
303.15 K, x1 = 0.5002	786.64	1338.1	3
303.15 K, x1 = 0.5998	790.99	1342	3.06
303.15 K, x1 = 0.8002	800.06	1350.2	3.2
303.15 K, x1 = 1	809.57	1359.6	3.39
313.15 K, x1 = 0.2005	767.33	1290.2	2.3
313.15 K, x1 = 0.4001	775.51	1297.7	2.38
313.15 K, x1 = 0.5002	779.77	1301.6	2.43
313.15 K, x1 = 0.5998	784.12	1305.6	2.47
313.15 K, x1 = 0.8002	793.21	1313.8	2.58
313.15 K, x1 = 1	802.74	1322.9	2.72
323.15 K, x1 = 0.2005	760.43	1254.4	1.9
323.15 K, x1 = 0.4001	768.63	1261.9	1.96
323.15 K, x1 = 0.5002	772.9	1265.8	2
323.15 K, x1 = 0.5998	777.25	1269.8	2.03
323.15 K, x1 = 0.8002	786.35	1278.1	2.12
323.15 K, x1 = 1	795.8	1287.1	2.22
333.15 K, x1 = 0.2005	753.54	1219.5	1.6
333.15 K, x1 = 0.4001	761.74	1226.9	1.65
333.15 K, x1 = 0.5002	766.02	1230.9	1.68
333.15 K, x1 = 0.5998	770.38	1234.9	1.7
333.15 K, x1 = 0.8002	779.49	1243.4	1.77
333.15 K, x1 = 1	789.05	1252.2	1.85
343.15 K, x1 = 0.2005	746.6	–	1.38
343.15 K, x1 = 0.4001	754.9	–	1.4
343.15 K, x1 = 0.5002	759.2	–	1.44
343.15 K, x1 = 0.5998	763.6	–	1.45
343.15 K, x1 = 0.8002	772.7	–	1.5
343.15 K, x1 = 1	782.2	–	1.57
353.15 K, x1 = 0.2005	739.7	–	1.18
353.15 K, x1 = 0.4001	748	–	1.21
353.15 K, x1 = 0.5002	752.3	–	1.23
353.15 K, x1 = 0.5998	756.8	–	1.25
353.15 K, x1 = 0.8002	765.8	–	1.3
353.15 K, x1 = 1	775.4	–	1.35
363.15 K, x1 = 0.2005	732.7	–	1.05
363.15 K, x1 = 0.4001	741.1	–	1.06
363.15 K, x1 = 0.5002	745.4	–	1.09
363.15 K, x1 = 0.5998	749.8	–	1.09
363.15 K, x1 = 0.8002	758.9	–	1.13
363.15 K, x1 = 1	768.5	–	1.2
373.15 K, x1 = 0.2005	725.7	–	0.908
373.15 K, x1 = 0.4001	734.2	–	0.931
373.15 K, x1 = 0.5002	738.5	–	0.944
373.15 K, x1 = 0.5998	742.9	–	0.96
373.15 K, x1 = 0.8002	752	–	1
373.15 K, x1 = 1	761.6	–	1.03
